How the values were obtained:
Anaphylatoxin C5a = biological target: T1, Anaphylatoxin C5a (Homo sapiens, UniProt P21730); experiment: Radioligand binding panel (Table S1); conditions: 10 μM T1-11, n 2
T1 construct: purchased MDS Pharma Services Taiwan

Androgen (Testosterone) = experiment: Radioligand binding panel (Table S1); parameters: species or system human; conditions: 10 μM T1-11, n 2
Angiotensin AT1 = biological target: T2, Angiotensin AT1 (Homo sapiens, UniProt P30556); experiment: Radioligand binding panel (Table S1); conditions: 10 μM T1-11, n 2
T2 construct: purchased MDS Pharma Services Taiwan
T2 sequence (P30556 whole entry): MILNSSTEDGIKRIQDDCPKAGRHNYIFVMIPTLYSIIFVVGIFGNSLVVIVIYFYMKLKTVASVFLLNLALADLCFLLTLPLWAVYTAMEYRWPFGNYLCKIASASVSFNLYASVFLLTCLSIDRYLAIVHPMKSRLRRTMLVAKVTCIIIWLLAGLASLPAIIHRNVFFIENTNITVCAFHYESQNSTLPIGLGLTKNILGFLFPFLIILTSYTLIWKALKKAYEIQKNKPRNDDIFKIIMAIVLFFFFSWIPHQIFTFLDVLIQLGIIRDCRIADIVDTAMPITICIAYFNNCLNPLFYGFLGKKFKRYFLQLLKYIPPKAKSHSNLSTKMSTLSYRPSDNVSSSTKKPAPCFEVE

Calcitonin = biological target: T3, Calcitonin (Homo sapiens, UniProt P30988); experiment: Radioligand binding panel (Table S1); conditions: 10 μM T1-11, n 2
T3 construct: purchased MDS Pharma Services Taiwan
T3 sequence (P30988 25-474): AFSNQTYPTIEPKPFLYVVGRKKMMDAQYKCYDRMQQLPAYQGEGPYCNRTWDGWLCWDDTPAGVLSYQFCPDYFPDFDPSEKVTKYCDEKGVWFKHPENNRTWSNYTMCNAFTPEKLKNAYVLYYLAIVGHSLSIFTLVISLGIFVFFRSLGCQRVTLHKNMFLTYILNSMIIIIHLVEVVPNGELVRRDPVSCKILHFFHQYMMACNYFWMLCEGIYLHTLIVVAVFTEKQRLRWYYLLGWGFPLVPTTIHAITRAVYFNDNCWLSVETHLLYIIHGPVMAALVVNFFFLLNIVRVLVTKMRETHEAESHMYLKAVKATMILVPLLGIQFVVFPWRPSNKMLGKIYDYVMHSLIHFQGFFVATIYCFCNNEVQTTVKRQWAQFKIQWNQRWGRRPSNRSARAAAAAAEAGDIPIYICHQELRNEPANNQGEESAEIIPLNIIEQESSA

Calcium Channel N-Type = biological target: T4, Calcium Channel N-Type (Rattus norvegicus, UniProt Q02294); experiment: Radioligand binding panel (Table S1); conditions: 10 μM T1-11, n 2
T4 construct: purchased MDS Pharma Services Taiwan

Cannabinoid CB2 = biological target: T5, Cannabinoid CB2 (Homo sapiens, UniProt P34972); experiment: Radioligand binding panel (Table S1); conditions: 10 μM T1-11, n 2
T5 construct: purchased MDS Pharma Services Taiwan

[1] = biological target: T6, Cholecystokinin CCK. (CCKA) (Homo sapiens, UniProt P32238); experiment: Radioligand binding panel (Table S1); conditions: 10 μM T1-11, n 2
T6 construct: purchased MDS Pharma Services Taiwan
T6 sequence (P32238 whole entry): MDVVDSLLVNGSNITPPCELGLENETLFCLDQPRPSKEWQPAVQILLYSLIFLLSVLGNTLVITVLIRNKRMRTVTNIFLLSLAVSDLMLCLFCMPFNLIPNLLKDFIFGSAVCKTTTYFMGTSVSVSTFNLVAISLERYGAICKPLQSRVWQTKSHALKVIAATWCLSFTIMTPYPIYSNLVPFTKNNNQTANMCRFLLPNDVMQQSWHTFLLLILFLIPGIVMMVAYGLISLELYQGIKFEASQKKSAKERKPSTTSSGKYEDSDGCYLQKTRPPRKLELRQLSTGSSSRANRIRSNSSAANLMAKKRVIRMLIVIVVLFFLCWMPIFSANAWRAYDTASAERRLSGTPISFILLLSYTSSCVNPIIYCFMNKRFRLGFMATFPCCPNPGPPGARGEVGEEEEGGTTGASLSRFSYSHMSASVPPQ

Cyclooxygenase COX-2 = biological target: T7, Cyclooxygenase COX-2 (Homo sapiens, UniProt P35354); experiment: Radioligand binding panel (Table S1); conditions: 10 μM T1-11, n 2
T7 construct: purchased MDS Pharma Services Taiwan

Dopamine D2L = biological target: T8, Dopamine D2L (Homo sapiens, UniProt P14416); experiment: Radioligand binding panel (Table S1); conditions: 10 μM T1-11, n 2
T8 construct: purchased MDS Pharma Services Taiwan

Dopamine D2S = biological target: T9, Dopamine D2S (Homo sapiens, UniProt P14416); experiment: Radioligand binding panel (Table S1); conditions: 10 μM T1-11, n 2
T9 construct: purchased MDS Pharma Services Taiwan

Dopamine D3 = biological target: T10, Dopamine D3 (Homo sapiens, UniProt P35462); experiment: Radioligand binding panel (Table S1); conditions: 10 μM T1-11, n 2
T10 construct: purchased MDS Pharma Services Taiwan

Dopamine D4.4 = biological target: T11, Dopamine D4.4 (Homo sapiens, UniProt P21917); experiment: Radioligand binding panel (Table S1); conditions: 10 μM T1-11, n 2
T11 construct: purchased MDS Pharma Services Taiwan

Dopamine D5 = biological target: T12, Dopamine D5 (Homo sapiens, UniProt P21918); experiment: Radioligand binding panel (Table S1); conditions: 10 μM T1-11, n 2
T12 construct: purchased MDS Pharma Services Taiwan

Endothelin ETB = biological target: T13, Endothelin ETB (Homo sapiens, UniProt P24530); experiment: Radioligand binding panel (Table S1); conditions: 10 μM T1-11, n 2
T13 construct: purchased MDS Pharma Services Taiwan
T13 sequence (P24530 27-442): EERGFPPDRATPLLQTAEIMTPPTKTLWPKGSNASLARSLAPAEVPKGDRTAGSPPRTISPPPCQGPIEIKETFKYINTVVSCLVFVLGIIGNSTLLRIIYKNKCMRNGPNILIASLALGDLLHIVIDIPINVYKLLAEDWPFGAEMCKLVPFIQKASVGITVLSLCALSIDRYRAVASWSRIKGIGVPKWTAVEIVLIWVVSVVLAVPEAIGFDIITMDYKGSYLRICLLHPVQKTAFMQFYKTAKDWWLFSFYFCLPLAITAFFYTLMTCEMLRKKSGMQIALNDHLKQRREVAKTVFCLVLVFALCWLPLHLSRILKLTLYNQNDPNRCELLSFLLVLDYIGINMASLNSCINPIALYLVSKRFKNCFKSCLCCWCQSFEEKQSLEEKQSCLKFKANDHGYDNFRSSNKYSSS

Glutamate, NMDA, Glycine = Glutamate, NMDA, Glycine (Rattus norvegicus, UniProt P35439); experiment: Radioligand binding panel (Table S1); conditions: 10 μM T1-11, n 2
Imidazoline I2, Central = experiment: Radioligand binding panel (Table S1); parameters: species or system rat; conditions: 10 μM T1-11, n 2
Interleukin IL-6 = biological target: T14, Interleukin IL-6 (Homo sapiens, UniProt P08887); experiment: Radioligand binding panel (Table S1); conditions: 10 μM T1-11, n 2
T14 construct: purchased MDS Pharma Services Taiwan

Lipoxygenase 5-LO = biological target: T15, Lipoxygenase 5-LO (Homo sapiens, UniProt P09917); experiment: Radioligand binding panel (Table S1); conditions: 10 μM T1-11, n 2
T15 construct: purchased MDS Pharma Services Taiwan

Melanocortin MC4 = biological target: T16, Melanocortin MC4 (Homo sapiens, UniProt P32245); experiment: Radioligand binding panel (Table S1); conditions: 10 μM T1-11, n 2
T16 construct: purchased MDS Pharma Services Taiwan

Melanocortin MC5 = biological target: T17, Melanocortin MC5 (Homo sapiens, UniProt P33032); experiment: Radioligand binding panel (Table S1); conditions: 10 μM T1-11, n 2
T17 construct: purchased MDS Pharma Services Taiwan

[2] = tested on: Muscarinic, Oxotremorine-M; experiment: Radioligand binding panel (Table S1); parameters: species or system rat; conditions: 10 μM T1-11, n 2
Neuromedin U NMU1 = biological target: T18, Neuromedin U NMU1 (Homo sapiens, UniProt Q9HB89); experiment: Radioligand binding panel (Table S1); conditions: 10 μM T1-11, n 2
T18 construct: purchased MDS Pharma Services Taiwan

[3] = tested on: Platelet-Derived Growth Factor (PDGF); experiment: Radioligand binding panel (Table S1); parameters: species or system mouse; conditions: 10 μM T1-11, n 2
Prostanoid EP2 = biological target: T19, Prostanoid EP2 (Homo sapiens, UniProt P43116); experiment: Radioligand binding panel (Table S1); conditions: 10 μM T1-11, n 2
T19 construct: purchased MDS Pharma Services Taiwan

[4] = biological target: T20, Serotonin (5-Hydroxytryptamine) 5-HT2C (Homo sapiens, UniProt P28335); experiment: Radioligand binding panel (Table S1); conditions: 10 μM T1-11, n 2
T20 construct: purchased MDS Pharma Services Taiwan

[5] = biological target: T21, Serotonin (5-Hydroxytryptamine) 5-HT3 (Homo sapiens, UniProt P46098); experiment: Radioligand binding panel (Table S1); conditions: 10 μM T1-11, n 2
T21 construct: purchased MDS Pharma Services Taiwan

[6] = biological target: T22, Serotonin (5-Hydroxytryptamine) 5-HT4 (Cavia porcellus, UniProt O70528); experiment: Radioligand binding panel (Table S1); parameters: species or system guinea pig; conditions: 10 μM T1-11, n 2
T22 construct: purchased MDS Pharma Services Taiwan
T22 sequence (O70528 whole entry): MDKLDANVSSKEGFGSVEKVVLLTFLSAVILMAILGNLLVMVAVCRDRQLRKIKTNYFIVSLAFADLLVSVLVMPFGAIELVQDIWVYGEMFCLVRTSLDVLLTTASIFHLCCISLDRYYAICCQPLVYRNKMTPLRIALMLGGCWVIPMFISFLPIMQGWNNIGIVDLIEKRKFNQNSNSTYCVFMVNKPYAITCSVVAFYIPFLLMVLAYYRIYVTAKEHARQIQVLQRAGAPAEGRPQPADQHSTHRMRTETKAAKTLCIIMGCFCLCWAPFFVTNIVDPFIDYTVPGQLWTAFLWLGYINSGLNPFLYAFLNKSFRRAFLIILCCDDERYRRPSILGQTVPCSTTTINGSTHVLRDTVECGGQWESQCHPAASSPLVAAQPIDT

[7] = biological target: T23, Serotonin (5-Hydroxytryptamine) 5-HT5A (Homo sapiens, UniProt P47898); experiment: Radioligand binding panel (Table S1); conditions: 10 μM T1-11, n 2
T23 construct: purchased MDS Pharma Services Taiwan
T23 sequence (P47898 whole entry): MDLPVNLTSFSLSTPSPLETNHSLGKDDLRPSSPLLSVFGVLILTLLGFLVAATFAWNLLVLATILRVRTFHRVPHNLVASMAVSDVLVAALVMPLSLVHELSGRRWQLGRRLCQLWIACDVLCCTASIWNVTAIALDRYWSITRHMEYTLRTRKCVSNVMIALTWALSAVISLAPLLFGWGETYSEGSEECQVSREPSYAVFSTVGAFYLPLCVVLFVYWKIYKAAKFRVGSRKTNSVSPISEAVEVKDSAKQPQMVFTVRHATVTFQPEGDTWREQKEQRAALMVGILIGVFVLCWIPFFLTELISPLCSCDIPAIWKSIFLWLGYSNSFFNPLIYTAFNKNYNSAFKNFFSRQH

Sigma, Non-Selective = experiment: Radioligand binding panel (Table S1); parameters: species or system guinea pig; conditions: 10 μM T1-11, n 2
Somatostatin sst2 = biological target: T24, Somatostatin sst2 (Homo sapiens, UniProt P30874); experiment: Radioligand binding panel (Table S1); conditions: 10 μM T1-11, n 2
T24 construct: purchased MDS Pharma Services Taiwan
T24 sequence (P30874 whole entry): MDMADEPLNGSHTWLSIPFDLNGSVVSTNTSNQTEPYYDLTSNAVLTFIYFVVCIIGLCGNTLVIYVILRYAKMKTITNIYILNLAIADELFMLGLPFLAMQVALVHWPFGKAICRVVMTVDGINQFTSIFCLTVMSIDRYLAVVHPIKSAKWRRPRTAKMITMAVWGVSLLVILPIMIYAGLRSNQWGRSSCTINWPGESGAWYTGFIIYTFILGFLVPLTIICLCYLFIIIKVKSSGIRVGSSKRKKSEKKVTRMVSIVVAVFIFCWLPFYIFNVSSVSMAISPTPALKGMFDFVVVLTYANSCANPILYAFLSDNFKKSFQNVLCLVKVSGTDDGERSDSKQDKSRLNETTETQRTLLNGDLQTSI

Somatostatin sst3 = biological target: T25, Somatostatin sst3 (Homo sapiens, UniProt P32745); experiment: Radioligand binding panel (Table S1); conditions: 10 μM T1-11, n 2
T25 construct: purchased MDS Pharma Services Taiwan
T25 sequence (P32745 whole entry): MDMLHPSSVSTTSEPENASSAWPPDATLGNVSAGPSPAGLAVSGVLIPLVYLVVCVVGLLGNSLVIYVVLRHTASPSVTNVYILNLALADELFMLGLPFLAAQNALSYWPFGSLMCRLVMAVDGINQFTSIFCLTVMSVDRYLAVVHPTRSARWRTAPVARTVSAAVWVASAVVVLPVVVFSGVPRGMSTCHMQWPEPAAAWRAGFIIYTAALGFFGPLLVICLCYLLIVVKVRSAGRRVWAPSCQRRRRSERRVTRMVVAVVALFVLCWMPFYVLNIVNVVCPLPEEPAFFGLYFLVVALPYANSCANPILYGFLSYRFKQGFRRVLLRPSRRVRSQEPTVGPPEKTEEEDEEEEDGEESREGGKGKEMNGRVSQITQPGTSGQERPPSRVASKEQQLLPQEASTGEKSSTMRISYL

Tachykinin NK1 = biological target: T26, Tachykinin NK1 (Homo sapiens, UniProt P25103); experiment: Radioligand binding panel (Table S1); conditions: 10 μM T1-11, n 2
T26 construct: purchased MDS Pharma Services Taiwan
T26 sequence (P25103 whole entry): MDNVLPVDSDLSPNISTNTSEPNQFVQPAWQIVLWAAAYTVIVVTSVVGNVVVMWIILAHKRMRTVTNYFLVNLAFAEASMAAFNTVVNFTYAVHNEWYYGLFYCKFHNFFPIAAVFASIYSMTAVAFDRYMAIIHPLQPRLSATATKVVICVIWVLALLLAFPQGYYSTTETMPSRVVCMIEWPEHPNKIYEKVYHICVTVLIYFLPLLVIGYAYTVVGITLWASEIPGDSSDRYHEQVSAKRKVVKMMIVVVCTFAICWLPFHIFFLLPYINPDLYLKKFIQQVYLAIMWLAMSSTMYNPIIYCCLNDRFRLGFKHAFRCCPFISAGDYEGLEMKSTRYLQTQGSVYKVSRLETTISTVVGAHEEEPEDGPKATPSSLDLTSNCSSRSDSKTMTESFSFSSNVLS

Tachykinin NK3 = biological target: T27, Tachykinin NK3 (Homo sapiens, UniProt P29371); experiment: Radioligand binding panel (Table S1); conditions: 10 μM T1-11, n 2
T27 construct: purchased MDS Pharma Services Taiwan
T27 sequence (P29371 whole entry): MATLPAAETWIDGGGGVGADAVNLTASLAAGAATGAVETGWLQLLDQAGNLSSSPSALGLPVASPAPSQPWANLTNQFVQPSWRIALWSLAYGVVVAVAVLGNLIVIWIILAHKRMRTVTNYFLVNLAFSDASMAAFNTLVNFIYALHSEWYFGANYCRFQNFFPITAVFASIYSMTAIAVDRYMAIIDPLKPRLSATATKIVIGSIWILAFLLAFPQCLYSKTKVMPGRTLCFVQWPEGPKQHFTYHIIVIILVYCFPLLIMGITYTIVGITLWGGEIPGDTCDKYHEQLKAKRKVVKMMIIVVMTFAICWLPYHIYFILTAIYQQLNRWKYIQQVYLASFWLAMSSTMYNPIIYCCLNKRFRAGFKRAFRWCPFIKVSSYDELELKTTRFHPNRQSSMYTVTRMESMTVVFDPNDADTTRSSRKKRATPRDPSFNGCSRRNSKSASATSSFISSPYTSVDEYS

[8] = biological target: T28, Adenosine transporter (ENT1) (Cavia porcellus, UniProt H0V4R7); experiment: Radioligand binding assay; parameters: species or system guinea pig
T28 construct: Membrane fractions collected from the cerebral cortex of Duncan Hartley derived guinea pigs; tissue MDS Pharma Services Taiwan; host or cells: guinea pig cerebral cortex
T28 sequence (H0V4R7 1-461): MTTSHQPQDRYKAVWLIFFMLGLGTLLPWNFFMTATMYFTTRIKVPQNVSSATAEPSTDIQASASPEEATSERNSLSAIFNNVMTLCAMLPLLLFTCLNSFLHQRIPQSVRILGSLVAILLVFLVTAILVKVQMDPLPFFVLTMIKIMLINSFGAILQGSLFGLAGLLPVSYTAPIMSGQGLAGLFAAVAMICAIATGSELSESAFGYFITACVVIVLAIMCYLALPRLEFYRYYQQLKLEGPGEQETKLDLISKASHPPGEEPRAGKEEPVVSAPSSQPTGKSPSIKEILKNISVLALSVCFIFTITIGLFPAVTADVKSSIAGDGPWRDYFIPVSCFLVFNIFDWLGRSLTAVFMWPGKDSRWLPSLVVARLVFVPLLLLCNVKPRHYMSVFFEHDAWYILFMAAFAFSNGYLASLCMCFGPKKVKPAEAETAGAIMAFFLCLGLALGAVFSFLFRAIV

Transporter, Dopamine = biological target: T29, Transporter, Dopamine (Homo sapiens, UniProt Q01959); experiment: Radioligand binding panel (Table S1); conditions: 10 μM T1-11, n 2
T29 construct: purchased MDS Pharma Services Taiwan

Transporter, Monoamine = experiment: Radioligand binding panel (Table S1); parameters: species or system rabbit; conditions: 10 μM T1-11, n 2
Vanilloid = biological target: T30, Vanilloid (Rattus norvegicus, UniProt O35433); experiment: Radioligand binding panel (Table S1); conditions: 10 μM T1-11, n 2
T30 construct: purchased MDS Pharma Services Taiwan
T30 sequence (O35433 whole entry): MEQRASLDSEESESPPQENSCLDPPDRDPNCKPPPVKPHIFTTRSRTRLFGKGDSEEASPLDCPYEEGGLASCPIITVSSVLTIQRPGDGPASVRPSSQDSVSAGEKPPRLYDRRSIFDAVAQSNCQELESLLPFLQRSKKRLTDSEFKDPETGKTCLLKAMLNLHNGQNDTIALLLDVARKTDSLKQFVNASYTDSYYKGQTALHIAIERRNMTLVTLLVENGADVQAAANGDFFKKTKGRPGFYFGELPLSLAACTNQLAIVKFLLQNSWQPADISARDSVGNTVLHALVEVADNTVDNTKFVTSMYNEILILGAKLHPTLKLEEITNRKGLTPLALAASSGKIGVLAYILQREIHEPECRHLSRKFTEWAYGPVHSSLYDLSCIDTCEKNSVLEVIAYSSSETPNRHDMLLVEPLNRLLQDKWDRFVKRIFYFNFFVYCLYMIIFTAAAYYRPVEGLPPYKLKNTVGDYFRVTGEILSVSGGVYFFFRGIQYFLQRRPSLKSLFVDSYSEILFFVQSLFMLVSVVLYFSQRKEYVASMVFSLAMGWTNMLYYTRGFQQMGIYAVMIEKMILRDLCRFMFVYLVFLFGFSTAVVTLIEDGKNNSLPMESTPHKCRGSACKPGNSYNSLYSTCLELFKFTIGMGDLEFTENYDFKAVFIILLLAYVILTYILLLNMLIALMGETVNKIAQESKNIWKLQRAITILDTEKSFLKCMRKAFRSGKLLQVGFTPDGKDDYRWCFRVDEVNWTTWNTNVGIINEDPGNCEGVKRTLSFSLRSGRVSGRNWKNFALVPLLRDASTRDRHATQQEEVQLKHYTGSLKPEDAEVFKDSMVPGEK

[9] = guinea pig cerebral cortex membranes, 3H-NBTI 0.5 nM

## OC[C@H]1O[C@@H](n2cnc3c(NCc4ccc(O)cc4)ncnc32)[C@H](O)[C@@H]1O [T1-11, N ^6-(4-hydroxybenzyl)adenine riboside]
Anaphylatoxin C5a
  inhibition at 10 µM: 2%
Androgen (Testosterone)
  % Inhibition: 3%
Angiotensin AT1
  inhibition at 10 µM: -5%
Calcitonin
  inhibition at 10 µM: 15%
Calcium Channel N-Type
  inhibition at 10 µM: 1%
Cannabinoid CB2
  inhibition at 10 µM: -2%
[1]
  inhibition at 10 µM: -3%
Cyclooxygenase COX-2
  inhibition at 10 µM: 0%
Dopamine D2L
  inhibition at 10 µM: 13%
Dopamine D2S
  inhibition at 10 µM: 10%
Dopamine D3
  inhibition at 10 µM: -7%
Dopamine D4.4
  inhibition at 10 µM: 8%
Dopamine D5
  inhibition at 10 µM: 2%
Endothelin ETB
  inhibition at 10 µM: 2%
Glutamate, NMDA, Glycine
  inhibition at 10 µM: 7%
Imidazoline I2, Central
  % Inhibition: 3%
Interleukin IL-6
  inhibition at 10 µM: -3%
Lipoxygenase 5-LO
  inhibition at 10 µM: 25%
Melanocortin MC4
  inhibition at 10 µM: 5%
Melanocortin MC5
  inhibition at 10 µM: 1%
[2]
  % Inhibition: -7%
Neuromedin U NMU1
  inhibition at 10 µM: -1%
[3]
  % Inhibition: -4%
Prostanoid EP2
  inhibition at 10 µM: 10%
[4]
  inhibition at 10 µM: 27%
[5]
  inhibition at 10 µM: 5%
[6]
  inhibition at 10 µM: 1%
[7]
  inhibition at 10 µM: -7%
Sigma, Non-Selective
  % Inhibition: -3%
Somatostatin sst2
  inhibition at 10 µM: 9%
Somatostatin sst3
  inhibition at 10 µM: 15%
Tachykinin NK1
  inhibition at 10 µM: 3%
Tachykinin NK3
  inhibition at 10 µM: -3%
[8]; 10 μM T1-11, n 2
  inhibition at 10 µM: 84%
[8]; [9]
  IC50: 1.57 µM
  Ki: 0.54 µM
Transporter, Dopamine
  inhibition at 10 µM: -6%
Transporter, Monoamine
  % Inhibition: -6%
Vanilloid
  inhibition at 10 µM: 8%

— article PMC3119665, “A New Drug Design Targeting the Adenosinergic System for Huntington's Disease” (PLoS ONE, 2011)
